Test results as given in EP0288055B1, “Use of ODC inhibitors, dacarbazine, and interferon, in the treatment of malignant melanoma” (MERRELL DOW PHARMACEUTICALS INC., priority 1987, dated 1988).

Tested on: B16 melanoma
Assay: Effect on the growth of B16 melanoma in mice (tumor weight at sacrifice)
Assay type: in vivo
Conditions: for Tumor Weight (g) (Mean ± S.E.): B16 melanoma cells (1 x 10^5 cells/animal) S.C., tumors weighed on day 18, DFMO 2% in drinking water day 1-18, DTIC 6.25 mg/Kg i.p. once daily day 1-15, IFN 1000 units/animal S.C. alternate days day 2-18; for % Inhibition: inhibition of tumor weight vs control on day 18, same dosing as for tumor weight
From the text: EFFECT OF A COMBINATION OF α-DIFLUOROMETHYLORNITHINE (DFMO), DACARBAZINE (DTIC) AND α-INTERFERON (IFN) ON THE GROWTH OF B16 MELANOMA IN MICE

## NCCC[C@](N)(C(=O)O)C(F)F [DFMO, α-difluoromethyl ornithine]
  Tumor Weight (g) (Mean ± S.E.): 1.02 ± 0.15 g
  % Inhibition: 86.0%

## CN(C)N=Nc1[nH]cnc1C(N)=O [DTIC, 5-(3,3-Dimethyl-1-triazenyl)-1H-imidazole-4-carboxamide]
  Tumor Weight (g) (Mean ± S.E.): 3.2 ± 0.63 g
  % Inhibition: 35.0%
